Source: patent US11731977B2, “SGC stimulators” (Cyclerion Therapeutics, Inc., priority 2016, dated 2023)

Assays:
sGC enzyme = target: T1, sGC enzyme (Homo sapiens, UniProt Q02108+Q02153); experiment: cGMP GloSensor cell-based assay, 384-well format (Example 2a); conditions: HEK293 GloSensor 40F cGMP cells; 10 μM DETA-NONOate; 50% of high control (30 μM Compound Y); read-out: Abs EC50
T1 construct: sGC enzyme activity values in HEK cells, determined by the GloSensor assay; host or cells: HEK293 cells stably expressing GloSensor 40F cGMP biosensor
T1 sequence (Q02153 1-619): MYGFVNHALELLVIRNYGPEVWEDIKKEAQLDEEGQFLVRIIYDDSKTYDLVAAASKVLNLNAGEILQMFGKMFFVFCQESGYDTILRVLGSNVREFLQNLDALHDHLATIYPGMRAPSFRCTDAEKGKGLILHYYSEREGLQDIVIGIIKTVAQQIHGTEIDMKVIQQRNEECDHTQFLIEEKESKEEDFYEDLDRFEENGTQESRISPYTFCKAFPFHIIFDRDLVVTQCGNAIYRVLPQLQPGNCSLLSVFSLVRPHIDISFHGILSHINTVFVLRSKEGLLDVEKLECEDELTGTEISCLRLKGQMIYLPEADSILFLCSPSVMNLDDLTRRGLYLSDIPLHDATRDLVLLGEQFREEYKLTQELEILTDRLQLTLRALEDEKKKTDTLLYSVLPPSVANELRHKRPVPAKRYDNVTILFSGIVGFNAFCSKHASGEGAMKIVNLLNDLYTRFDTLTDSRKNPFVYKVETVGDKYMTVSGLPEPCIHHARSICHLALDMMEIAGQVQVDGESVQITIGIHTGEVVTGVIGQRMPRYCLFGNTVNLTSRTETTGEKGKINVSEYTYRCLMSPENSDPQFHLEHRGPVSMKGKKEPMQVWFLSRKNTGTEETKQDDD
T1 sequence (Q02108 1-690): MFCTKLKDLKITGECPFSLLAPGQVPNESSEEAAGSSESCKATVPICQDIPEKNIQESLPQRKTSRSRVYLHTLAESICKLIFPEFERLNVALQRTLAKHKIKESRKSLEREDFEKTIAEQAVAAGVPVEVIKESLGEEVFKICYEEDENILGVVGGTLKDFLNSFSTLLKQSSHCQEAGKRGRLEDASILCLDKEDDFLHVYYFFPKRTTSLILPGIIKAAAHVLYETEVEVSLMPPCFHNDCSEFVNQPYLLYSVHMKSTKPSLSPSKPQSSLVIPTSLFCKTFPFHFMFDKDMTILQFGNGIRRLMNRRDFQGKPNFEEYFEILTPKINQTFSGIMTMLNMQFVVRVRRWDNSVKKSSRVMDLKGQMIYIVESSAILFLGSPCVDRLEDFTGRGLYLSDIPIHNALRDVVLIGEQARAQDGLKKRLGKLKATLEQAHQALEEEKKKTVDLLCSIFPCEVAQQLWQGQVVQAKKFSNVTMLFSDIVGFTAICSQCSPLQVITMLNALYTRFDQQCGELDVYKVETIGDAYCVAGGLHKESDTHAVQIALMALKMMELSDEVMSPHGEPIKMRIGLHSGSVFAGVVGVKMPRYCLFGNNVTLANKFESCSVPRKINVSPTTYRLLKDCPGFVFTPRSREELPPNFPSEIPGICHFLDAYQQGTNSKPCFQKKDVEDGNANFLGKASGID
From the text: Human embryonic kidney cells (HEK293) cells expressing GloSensor™ 40F cGMP (Part No: CS182801, Promega) were used to evaluate the activity of test compounds. The luminescent biosensors (engineered luciferase) that were incorporated into these cells detect cGMP formed by the compounds stimulating the sGC enzyme and emit luminescence.
cGMP GloSensor cells were maintained in Dulbecco's Modification of Eagle's Medium (DMEM) supplemented with fetal bovine serum (FBS, 10% final) and hygromycine (200 ug/ml). The day before assay, cells were plated in DMEM with 10% FBS in a 50 μL volume at a density of 1.5×10^4 cells/well in a poly-D-lysine coated 384-well flat white-bottom plate (Corning Cat No 35661). Cells were incubated overnight at 37° C. in a humidified chamber with 5% CO2. The next day, medium was removed and cells were replaced with 40 ul/well of GloSensor™, 2 mM (Promega Cat No E1291). Cells were treated for 90 minutes at 25° C. to allow the substrate to equilibrate in the cells. Test compounds and Diethylenetriamine NONOate (DETA-NONOate, or DETA-NO) was diluted to 3 mM (20×) in serum-free CO2 independent medium and serially diluted at 4× dilutions to create 5× dose curve from which 10 ul was added to the wells (x μM concentration for test compound solution and 10 μM concentration for DETA-NONOate solution; wherein x is one of the following final concentrations: 30000 nM, 7500 nM, 1875 nM, 468.8 nM, 117.2 nM, 29.29 nM, 7.320 nM, 1.830 nM, 0.460 nM, 0.114 nM, and 0.029 nM).
For the kinetics studies, luminescense was measured right away for 0.2 sec per well with Envision (Perkin Elmer). For endpoint SAR screening, data were collected after 55 min incubation at room temperature.
Data were normalized to a high control using the following equation: 100*(Sample−Low Control)/(High Control−Low Control), where the low control is the average of 16 samples treated with 1% DMSO, and the high control is the average of 16 samples treated with 30 μM of Compound Y depicted below. Data were fit using a 4-parameter fit (log(agonist) vs. response—variable slope) using GraphPad Prism Software v.5. n=2 for all compounds. The Absolute (Abs) EC50 was interpolated from the curve fit and is defined as the concentration at which a given compound elicits 50% of the high control response after data normalization as indicated above. Compounds failing to elicit a minimum response of 50% are reported as >30 μM or ND. For compounds run in duplicate or n higher than 2, the result herein given is the geometric mean of the several results obtained.

[1] = test system: cGMP in rat primary neurons; experiment: cGMP neuronal cell-based assay (Example 3); conditions: Primary neuron; rat primary hippocampal neurons; 30 μM DETA-NO; cGMP by LC-MS/MS; 50% of high control (10 μM Compound Y); read-out: Abs EC50
Experimental: Rat primary neurons were isolated from fetuses of 18-day pregnant Sprague-Dawley females. The fetuses were collected in Hanks' balanced salt solution (HBSS) and brains were rapidly removed. The cerebral hippocampi were isolated and mechanically fragmented. Further tissue digestion was performed with 0.25% (wt/vol) trypsin solution in HBSS without Ca2+ and Mg2+ for 15 min at 37° C. After trypsination, cells were washed and resuspended in neurobasal medium supplemented with 0.5 mM L-glutamine, 12.5 uM glutamic acid, 2% B-27 and 100 U/mL penicillin, and 100 μg/mL streptomycin. Cells were plated at a density of 4×10^4 cells/well in a poly-D-lysine coated 384-well flat clear-bottom plate (Corning Cat No 354662). Cells were incubated 6-7 days at 37° C. in a humidified chamber with 5% CO2. Media was removed and cells were washed 1× with HBSS containing Ca2+ and Mg2+, and replaced with 40 uL HBSS containing 0.5 mM IBMX, and incubated for 15 minutes at 37° C. 10 uL of a 5× stock of test compounds with diethylenetriamine NONOate (DETA-NO) was added. Final concentration of DETA-NO was 30 μM. Cells were incubated for 20 min at 37° C. Medium was removed, 50 uL of ice-cold 10% acetic acid was added, and incubated for 60 minutes at 4° C. Following centrifugation at 4° C. for 5 minutes at 1000×g to pellet cell debris, the supernatant was aspirated to a clean plate and the samples were analyzed for cGMP content. cGMP concentrations were determined from each sample using LC-MS/MS.
Data were normalized to a high control using the following equation: 100*(Sample−Low Control)/(High Control−Low Control), where the low control is the average of 15 samples treated with 1% DMSO, and the high control is the average of 15 samples treated with 10 μM a known sGC stimulator Compound Y. Data were fit using a 4-parameter fit (log(agonist) vs. response—variable slope) using GraphPad Prism Software v.5. n=2 for all compounds. The Absolute EC50 was interpolated from the curve fit and is defined as the concentration at which a given compound elicits 50% of the high control response. Compounds failing to elicit a minimum response of 50% are reported as >30 μM. For compounds run in duplicate or n higher than 2, the result herein given is the geometric mean of the several results obtained.

[2] = Rat cerebrospinal fluid (CSF) pharmacokinetic properties (Example 4); type: in vivo; conditions: male, Sprague-Dawley, 10 mg/kg PO, 1 h; for Kp uu at 1 h: unbound CSF/unbound plasma, read-out: Kp,uu (@ 1 h); for concentration at 1 h: CSF, read-out: CSF Conc. (nM @ 1 h)
Experimental: Protocol PK in rats was determined following oral dosing. For the oral (PO) experiments, a group of 6 male Sprague-Dawley rats with an indwelling catheter placed in the cistema magna were used. The PO group was dosed with 10 mg/kg or 1 mg/kg of a compound formulated as a solution in PEG400. PO doses were administered by oral gavage and delivered to the stomach using a syringe and gavage tube. Following oral dosage administration, the gavage tube was flushed with approximately 0.5 mL of water to ensure complete delivery of the full dose.
Plasma samples were collected as follows: samples of CSF and blood were collected at 1 hour, 2, and optionally at 4 hours post-dosing. CSF samples (0.05 mL) were collected through the intracisternal catheter. Blood samples (0.25 mL) were collected through retro-orbital sampling. These samples were kept on ice until processed for plasma. Blood samples were centrifuged at 3200 rpm for 5 minutes at approximately 5° C. within 1 hour of collection. Plasma was directly transferred to a 96-well plate tube (0.125 mL). Plug caps were placed on the tubes and the tubes frozen at approximately −70° C. and stored until analysis. Plasma was collected and analyzed for the presence of a compound.
Quantitation of Compounds. The compound in question and the internal standard were extracted from plasma and CSF by precipitation. Samples were analyzed using liquid chromatography (LC) with tandem mass spectrometric detection (MS/MS) using electrospray ionization. The standard curve range was from 1 to 1000 ng/mL. Results of the compounds described herein in this assay are illustrated in Table 4a below (10 mg/kg dose) and Tables 4b and 4c below (1 mg/kg).
Kp,uu is defined as the concentration ratio of unbound drug in CSF to unbound drug in plasma. Unbound drug in plasma (or free plasma concentration) is calculated by multiplying the total plasma concentration by the unbound fraction as determined by plasma protein binding. The CSF concentration is then divided by the free plasma concentration to determine the Kp,uu. (See e.g., Di et al., J. Med. Chem., 56, 2-12 (2013))

| EC50 (sGC enzyme) | EC50 [1] | Kp uu at 1 h [2] | concentration at 1 h [2] | Compound |
| --- | --- | --- | --- | --- |
| > 1000 nM | > 1000 nM | – | – | FC(F)(F)c1n[nH]c(-c2cn3ccnc3c(CCC(F)(F)C(F)(F)F)n2)n1 [Compound I-13, 8-(3,3,4,4,4-Pentafluorobutyl)-6-(3-(trifluoromethyl)-1H-1,2,4-triazol-5-yl)imidazo[1,2-a]pyrazine] |
| 100 to 1000 nM | 100 to 1000 nM | – | – | FC(F)(F)c1n[nH]c(-c2cn3ncnc3c(Cc3ccccc3)n2)n1 [Compound I-15, 8-Benzyl-6-(3-(trifluoromethyl)-1H-1,2,4-triazol-5-yl)-[1,2,4]triazolo[1,5-a]pyrazine] |
| ≤ 100 nM | – | 0.2 | 41 nM | Cc1ccc(Cc2nc(-c3nc(C(F)(F)F)n[nH]3)cn3ccnc23)cc1F [Compound I-27, 8-(3-Fluoro-4-methylbenzyl)-6-(3-(trifluoromethyl)-1H-1,2,4-triazol-5-yl)imidazo[1,2-a]pyrazine] |
| ≤ 100 nM | – | 0.2 | 20 nM | Cc1ccc(Cc2nc(-c3nc(C(F)F)n[nH]3)cn3ccnc23)cc1F [Compound I-28, 6-(3-(Difluoromethyl)-1H-1,2,4-triazol-5-yl)-8-(3-fluoro-4-methylbenzyl)imidazo[1,2-a]pyrazine] |

More lines, now with the values behind:

| Compound | EC50 (sGC enzyme) | EC50 [1] | Kp uu at 1 h [2] | concentration at 1 h [2] |
| --- | --- | --- | --- | --- |
| Fc1ccccc1Cc1nc(-c2nc(C(F)(F)C(F)(F)F)n[nH]2)cn2ccnc12 [Compound I-5, 8-(2-Fluorobenzyl)-6-(3-(perfluoroethyl)-1H-1,2,4-triazol-5-yl)imidazo[1,2-a]pyrazine] | ≤ 100 nM | ≤ 100 nM | – | – |
| FC(F)(F)c1n[nH]c(-c2cn3ccnc3c(Cc3ccccc3)n2)n1 [Compound I-6, 8-Benzyl-6-(3-(trifluoromethyl)-1H-1,2,4-triazol-5-yl)imidazo[1,2-a]pyrazine] | 100 to 1000 nM | ≤ 100 nM | – | – |
| FC(F)c1n[nH]c(-c2cn3ccnc3c(Cc3ccccc3)n2)n1 [Compound I-7, 8-Benzyl-6-(3-(difluoromethyl)-1H-1,2,4-triazol-5-yl)imidazo[1,2-a]pyrazine] | 100 to 1000 nM | 100 to 1000 nM | – | – |
| Fc1ccc(F)c(Cc2nc(-c3nc(C(F)(F)F)n[nH]3)cn3ccnc23)c1 [Compound I-8, 8-(2,5-Difluorobenzyl)-6-(3-(trifluoromethyl)-1H-1,2,4-triazol-5-yl)imidazo[1,2-a]pyrazine] | ≤ 100 nM | ≤ 100 nM | – | – |
| Fc1ccc(F)c(Cc2nc(-c3nc(C(F)F)n[nH]3)cn3ccnc23)c1 [Compound I-9, 8-(2,5-Difluorobenzyl)-6-(3-(difluoromethyl)-1H-1,2,4-triazol-5-yl)imidazo[1,2-a]pyrazine] | ≤ 100 nM | ≤ 100 nM | – | – |
| Fc1ccc(Cc2nc(-c3nc(C(F)(F)F)n[nH]3)cn3ccnc23)cc1 [Compound I-12, 8-(4-Fluorobenzyl)-6-(3-(trifluoromethyl)-1H-1,2,4-triazol-5-yl)imidazo[1,2-a]pyrazine] | 100 to 1000 nM | 100 to 1000 nM | – | – |
